How the values were obtained:
UISO cells (VN-MCC) = assay: qHTS cell viability (CellTiter-Glo, 72 h; primary and follow-up small molecule screen); assay type: cell-based, human; details: for Percent viability: UISO, 72h
NIH-3T3 cells = assay: qHTS cell viability (CellTiter-Glo, 72 h; primary screen), control cell line; assay type: cell-based, mouse
MCC13 cells (VN-MCC) = assay: qHTS cell viability (CellTiter-Glo, 72 h; primary and follow-up small molecule screen); assay type: cell-based, human; details: for Percent viability: MCC13, 72h
HEK293T cells = assay: qHTS cell viability (CellTiter-Glo, 72 h; primary screen), control cell line; assay type: cell-based, human
MKL-1 cells (VP-MCC) = assay: qHTS cell viability (CellTiter-Glo, 72 h; primary and follow-up small molecule screen); assay type: cell-based, human; details: for Percent viability: MKL1, 72h
HACAT cells = assay: qHTS cell viability (CellTiter-Glo, 72 h; primary screen), control cell line; assay type: cell-based, human
MKL-2 cells (VP-MCC) = assay: qHTS cell viability (CellTiter-Glo, 72 h; primary and follow-up small molecule screen); assay type: cell-based, human; details: for Percent viability: MKL2, 72h
MCC26 cells (VN-MCC) = assay: as above; assay type: cell-based, human; details: for Percent viability: MCC26, 72h
CRL-7250 cells = assay: qHTS cell viability (CellTiter-Glo, 72 h; primary screen), control cell line; assay type: cell-based
WAGA cells (VP-MCC) = assay: qHTS cell viability (CellTiter-Glo, 72 h; primary and follow-up small molecule screen); assay type: cell-based, human; details: for Percent viability: WAGA, 72h
[1] = test system: VP-MCC cell lines (WAGA, MKL-1, MKL-2); assay: qHTS cell viability, VP-MCC cell lines as a group (mean AUC, VP.MCC.avg); assay type: cell-based, human; details: re-tested in triplicate, follow-up screen

SMILES: COC[C@H]1OC(=O)c2coc3c2[C@@]1(C)C1=C(C3=O)[C@@H]2CC[C@H](O)[C@@]2(C)C[C@H]1OC(C)=O [17_-hydroxy Wortmannin]
- Area under the dose-response curve (AUC) UISO Replicate 1 (UISO cells (VN-MCC)): 419.6
- Area under the dose-response curve (AUC) UISO Replicate 2 (UISO cells (VN-MCC)): 426.0
- Area under the dose-response curve (AUC) UISO Replicate 3 (UISO cells (VN-MCC)): 431.4
- UISO_AUC (UISO cells (VN-MCC)): 484.969
- NIH3T3_AUC (NIH-3T3 cells): 465.601
- Area under the dose-response curve (AUC) MCC13 Replicate 1 (MCC13 cells (VN-MCC)): 446.4
- Area under the dose-response curve (AUC) MCC13 Replicate 2 (MCC13 cells (VN-MCC)): 414.9
- Area under the dose-response curve (AUC) MCC13 Replicate 3 (MCC13 cells (VN-MCC)): 433.1
- MCC13_AUC (MCC13 cells (VN-MCC)): 505.746
- HEK293T_AUC (HEK293T cells): 476.067
- Area under the dose-response curve (AUC) MKL-1 Replicate 1 (MKL-1 cells (VP-MCC)): 417.4
- Area under the dose-response curve (AUC) MKL-1 Replicate 2 (MKL-1 cells (VP-MCC)): 456.9
- Area under the dose-response curve (AUC) MKL-1 Replicate 3 (MKL-1 cells (VP-MCC)): 460.6
- MKL1_AUC (MKL-1 cells (VP-MCC)): 433.03
- HACAT_AUC (HACAT cells): 466.176
- Area under the dose-response curve (AUC) MKL-2 Replicate 1 (MKL-2 cells (VP-MCC)): 408.4
- Area under the dose-response curve (AUC) MKL-2 Replicate 2 (MKL-2 cells (VP-MCC)): 434.1
- Area under the dose-response curve (AUC) MKL-2 Replicate 3 (MKL-2 cells (VP-MCC)): 442.8
- MKL2_AUC (MKL-2 cells (VP-MCC)): 431.749
- Area under the dose-response curve (AUC) MCC26 Replicate 1 (MCC26 cells (VN-MCC)): 392.5
- Area under the dose-response curve (AUC) MCC26 Replicate 2 (MCC26 cells (VN-MCC)): 398.0
- Area under the dose-response curve (AUC) MCC26 Replicate 3 (MCC26 cells (VN-MCC)): 386.6
- MCC26_AUC (MCC26 cells (VN-MCC)): 506.622
- CRL7250_AUC (CRL-7250 cells): 461.56
- Area under the dose-response curve (AUC) WAGA Replicate 1 (WAGA cells (VP-MCC)): 390.4
- Area under the dose-response curve (AUC) WAGA Replicate 2 (WAGA cells (VP-MCC)): 444.0
- Area under the dose-response curve (AUC) WAGA Replicate 3 (WAGA cells (VP-MCC)): 465.6
- WAGA_AUC (WAGA cells (VP-MCC)): 431.369

SMILES: CC(N[C@H]1CCCC[C@@H]1NC(=O)c1ccc(Cl)cc1)c1cccc2ccccc12 (stereo partly drawn) [Calhex-231]
- UISO_AUC (UISO cells (VN-MCC)): 470.957
- NIH3T3_AUC (NIH-3T3 cells): 459.862
- MCC13_AUC (MCC13 cells (VN-MCC)): 461.512
- HEK293T_AUC (HEK293T cells): 469.437
- MKL1_AUC (MKL-1 cells (VP-MCC)): 380.302
- HACAT_AUC (HACAT cells): 466.353
- MKL2_AUC (MKL-2 cells (VP-MCC)): 347.428
- MCC26_AUC (MCC26 cells (VN-MCC)): 461.125
- CRL7250_AUC (CRL-7250 cells): 474.743
- WAGA_AUC (WAGA cells (VP-MCC)): 428.682

SMILES: CCS(=O)(=O)c1cccc(-c2cc(C(=O)NC3CCN(C)CC3)c(C)c3[nH]c4ncc(C)cc4c23)c1 [TAK-901, reference compound]
- Percent viability (UISO cells (VN-MCC); Log (M) -5.33646): 2.3%
- Percent viability (UISO cells (VN-MCC); Log (M) -5.81358): 2.9%
- Percent viability (UISO cells (VN-MCC); Log (M) -6.2907): 16.4%
- Percent viability (UISO cells (VN-MCC); Log (M) -6.76782): 39.6%
- Percent viability (UISO cells (VN-MCC); Log (M) -7.24494): 65.2%
- Percent viability (UISO cells (VN-MCC); Log (M) -7.72207): 80.6%
- Percent viability (UISO cells (VN-MCC); Log (M) -8.19919): 77.5%
- Percent viability (UISO cells (VN-MCC); Log (M) -8.67631): 101.9%
- Percent viability (UISO cells (VN-MCC); Log (M) -9.15343): 102.4%
- Percent viability (UISO cells (VN-MCC); Log (M) -9.63055): 103.6%
- Percent viability (UISO cells (VN-MCC); Log (M) -10.1077): 103.5%
- Percent viability (MCC13 cells (VN-MCC); Log (M) -5.33646): 26.1%
- Percent viability (MCC13 cells (VN-MCC); Log (M) -5.81358): 79.3%
- Percent viability (MCC13 cells (VN-MCC); Log (M) -6.2907): 86.5%
- Percent viability (MCC13 cells (VN-MCC); Log (M) -6.76782): 99.0%
- Percent viability (MCC13 cells (VN-MCC); Log (M) -7.24494): 119.7%
- Percent viability (MCC13 cells (VN-MCC); Log (M) -7.72207): 113.0%
- Percent viability (MCC13 cells (VN-MCC); Log (M) -8.19919): 118.4%
- Percent viability (MCC13 cells (VN-MCC); Log (M) -8.67631): 116.9%
- Percent viability (MCC13 cells (VN-MCC); Log (M) -9.15343): 104.5%
- Percent viability (MCC13 cells (VN-MCC); Log (M) -9.63055): 119.9%
- Percent viability (MCC13 cells (VN-MCC); Log (M) -10.1077): 98.3%
- Percent viability (MKL-1 cells (VP-MCC); Log (M) -5.33646): 3.5%
- Percent viability (MKL-1 cells (VP-MCC); Log (M) -5.81358): 27.5%
- Percent viability (MKL-1 cells (VP-MCC); Log (M) -6.2907): 14.2%
- Percent viability (MKL-1 cells (VP-MCC); Log (M) -6.76782): 38.9%
- Percent viability (MKL-1 cells (VP-MCC); Log (M) -7.24494): 42.7%
- Percent viability (MKL-1 cells (VP-MCC); Log (M) -7.72207): 48.2%
- Percent viability (MKL-1 cells (VP-MCC); Log (M) -8.19919): 61.6%
- Percent viability (MKL-1 cells (VP-MCC); Log (M) -8.67631): 102.5%
- Percent viability (MKL-1 cells (VP-MCC); Log (M) -9.15343): 100.0%
- Percent viability (MKL-1 cells (VP-MCC); Log (M) -9.63055): 106.9%
- Percent viability (MKL-1 cells (VP-MCC); Log (M) -10.1077): 62.6%
- Percent viability (MKL-2 cells (VP-MCC); Log (M) -5.33646): 3.8%
- Percent viability (MKL-2 cells (VP-MCC); Log (M) -5.81358): 12.3%
- Percent viability (MKL-2 cells (VP-MCC); Log (M) -6.2907): 44.7%
- Percent viability (MKL-2 cells (VP-MCC); Log (M) -6.76782): 52.1%
- Percent viability (MKL-2 cells (VP-MCC); Log (M) -7.24494): 44.0%
- Percent viability (MKL-2 cells (VP-MCC); Log (M) -7.72207): 44.3%
- Percent viability (MKL-2 cells (VP-MCC); Log (M) -8.19919): 48.4%
- Percent viability (MKL-2 cells (VP-MCC); Log (M) -8.67631): 94.9%
- Percent viability (MKL-2 cells (VP-MCC); Log (M) -9.15343): 110.4%
- Percent viability (MKL-2 cells (VP-MCC); Log (M) -9.63055): 106.9%
- Percent viability (MKL-2 cells (VP-MCC); Log (M) -10.1077): 102.9%
- VP-MCC viability (in words) [1]: consistently and potently reduced VP-MCC viability
- Percent viability (MCC26 cells (VN-MCC); Log (M) -5.33646): 25.9%
- Percent viability (MCC26 cells (VN-MCC); Log (M) -5.81358): 20.6%
- Percent viability (MCC26 cells (VN-MCC); Log (M) -6.2907): 33.0%
- Percent viability (MCC26 cells (VN-MCC); Log (M) -6.76782): 64.5%
- Percent viability (MCC26 cells (VN-MCC); Log (M) -7.24494): 80.5%
- Percent viability (MCC26 cells (VN-MCC); Log (M) -7.72207): 93.5%
- Percent viability (MCC26 cells (VN-MCC); Log (M) -8.19919): 87.4%
- Percent viability (MCC26 cells (VN-MCC); Log (M) -8.67631): 96.2%
- Percent viability (MCC26 cells (VN-MCC); Log (M) -9.15343): 90.5%
- Percent viability (MCC26 cells (VN-MCC); Log (M) -9.63055): 91.5%
- Percent viability (MCC26 cells (VN-MCC); Log (M) -10.1077): 63.2%
- Percent viability (WAGA cells (VP-MCC); Log (M) -5.33646): 14.8%
- Percent viability (WAGA cells (VP-MCC); Log (M) -5.81358): 27.2%
- Percent viability (WAGA cells (VP-MCC); Log (M) -6.2907): 24.4%
- Percent viability (WAGA cells (VP-MCC); Log (M) -6.76782): 45.2%
- Percent viability (WAGA cells (VP-MCC); Log (M) -7.24494): 29.7%
- Percent viability (WAGA cells (VP-MCC); Log (M) -7.72207): 26.6%
- Percent viability (WAGA cells (VP-MCC); Log (M) -8.19919): 95.5%
- Percent viability (WAGA cells (VP-MCC); Log (M) -8.67631): 121.9%
- Percent viability (WAGA cells (VP-MCC); Log (M) -9.15343): 112.0%
- Percent viability (WAGA cells (VP-MCC); Log (M) -9.63055): 114.1%
- Percent viability (WAGA cells (VP-MCC); Log (M) -10.1077): 123.7%
